According to US20140348819A1, “Methods of Treating Cancer” (Dana-Farber Cancer Institute, Inc., priority 2011, published 2014):

Columns and labels:
Assay type in all cases: cell-based, human
pERK/pAKT = test: High-throughput western analysis of pERK/pAKT re-activation by RTK ligands under BRAFi/MEKi
[1] = test system: six V600E BRAF melanoma cell lines; test: Screening of recombinant RTK ligands for ability to confer resistance to BRAFi (PLX4720) or MEKi (PD184352) (Table 4); set-up: ability of recombinant RTK ligand to confer resistance / ability of recombinant RTK ligand to confer resistance (screening value): scale not given here
How it was run: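 Six V600E BRAF melanoma lines treated with PLX4720 or PD184352 after addition of 22 recombinant RTK ligands, scored for drug resistance. Activation of selected RTKs confirmed by western blotting and high-throughput tyrosine kinase phosphorylation profiling.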

[2] = test system: V600E BRAF melanoma cell lines; test: HGF-induced / stromal resistance of melanoma cell lines to BRAF, MEK and AKT inhibitors and its reversal

Substance: HGF: paracrine cellular growth factor, ligand of the RTK c-MET
- activation of pAKT by HGF over time (pERK/pAKT; under BRAFi (PLX4720)): sustained over time
- reactivation of pERK by HGF (pERK/pAKT; under BRAFi (PLX4720)): substantially reactivate pERK
- re-activation of pERK/pAKT (pERK/pAKT; under BRAFi (PLX4720), after 1 hour of cytokine treatment, six V600E BRAF melanoma cell lines): reactivate both ERK and AKT
- reactivation of pERK by HGF (pERK/pAKT; under MEKi (PD184352)): not under MEKi
- activation of pAKT by RTK ligands (pERK/pAKT; under PLX4720, FIG. 10B): activates AKT in every cell lines tested
- duration of ERK/AKT activation (pERK/pAKT; under PLX4720 treatment): long lasting
- ability of recombinant RTK ligand to confer resistance ([1]; A2058, PD184352 - 1 uM, ligand 0.4 ng/ml): 1.02
- ability of recombinant RTK ligand to confer resistance ([1]; A2058, PD184352 - 1 uM, ligand 1.6 ng/ml): 1.01
- ability of recombinant RTK ligand to confer resistance ([1]; A2058, PD184352 - 1 uM, ligand 6.25 ng/ml): 1.10
- ability of recombinant RTK ligand to confer resistance ([1]; A2058, PD184352 - 1 uM, ligand 25 ng/ml): 1.10
- ability of recombinant RTK ligand to confer resistance ([1]; A2058, PD184352 - 1 uM, ligand 100 ng/ml): 1.66
- ability of recombinant RTK ligand to confer resistance ([1]; A2058, PLX4720 - 2 uM, ligand 0.4 ng/ml): 1.03
- ability of recombinant RTK ligand to confer resistance ([1]; A2058, PLX4720 - 2 uM, ligand 1.6 ng/ml): 1.02
- ability of recombinant RTK ligand to confer resistance ([1]; A2058, PLX4720 - 2 uM, ligand 6.25 ng/ml): 1.12
- ability of recombinant RTK ligand to confer resistance ([1]; A2058, PLX4720 - 2 uM, ligand 25 ng/ml): 1.32
- ability of recombinant RTK ligand to confer resistance ([1]; A2058, PLX4720 - 2 uM, ligand 100 ng/ml): 1.49
- ability of recombinant RTK ligand to confer resistance ([1]; C32, PD184352 - 1 uM, ligand 0.4 ng/ml): 1.10
- ability of recombinant RTK ligand to confer resistance ([1]; C32, PD184352 - 1 uM, ligand 1.6 ng/ml): 1.08
- ability of recombinant RTK ligand to confer resistance ([1]; C32, PD184352 - 1 uM, ligand 6.25 ng/ml): 1.29
- ability of recombinant RTK ligand to confer resistance ([1]; C32, PD184352 - 1 uM, ligand 25 ng/ml): 1.08
- ability of recombinant RTK ligand to confer resistance ([1]; C32, PD184352 - 1 uM, ligand 100 ng/ml): 1.96
- ability of recombinant RTK ligand to confer resistance ([1]; C32, PLX4720 - 2 uM, ligand 0.4 ng/ml): 1.04
- ability of recombinant RTK ligand to confer resistance ([1]; C32, PLX4720 - 2 uM, ligand 1.6 ng/ml): 1.15
- ability of recombinant RTK ligand to confer resistance ([1]; C32, PLX4720 - 2 uM, ligand 6.25 ng/ml): 1.42
- ability of recombinant RTK ligand to confer resistance ([1]; C32, PLX4720 - 2 uM, ligand 25 ng/ml): 1.96
- ability of recombinant RTK ligand to confer resistance ([1]; C32, PLX4720 - 2 uM, ligand 100 ng/ml): 2.01
- ability of recombinant RTK ligand to confer resistance ([1]; Colo 829, PD184352 - 1 uM, ligand 0.4 ng/ml): 0.96
- ability of recombinant RTK ligand to confer resistance ([1]; Colo 829, PD184352 - 1 uM, ligand 1.6 ng/ml): 0.99
- ability of recombinant RTK ligand to confer resistance ([1]; Colo 829, PD184352 - 1 uM, ligand 6.25 ng/ml): 1.12
- ability of recombinant RTK ligand to confer resistance ([1]; Colo 829, PD184352 - 1 uM, ligand 25 ng/ml): 1.41
- ability of recombinant RTK ligand to confer resistance ([1]; Colo 829, PD184352 - 1 uM, ligand 100 ng/ml): 1.89
- ability of recombinant RTK ligand to confer resistance ([1]; Colo 829, PLX4720 - 2 uM, ligand 0.4 ng/ml): 1.00
- ability of recombinant RTK ligand to confer resistance ([1]; Colo 829, PLX4720 - 2 uM, ligand 1.6 ng/ml): 1.02
- ability of recombinant RTK ligand to confer resistance ([1]; Colo 829, PLX4720 - 2 uM, ligand 6.25 ng/ml): 1.14
- ability of recombinant RTK ligand to confer resistance ([1]; Colo 829, PLX4720 - 2 uM, ligand 25 ng/ml): 1.35
- ability of recombinant RTK ligand to confer resistance ([1]; Colo 829, PLX4720 - 2 uM, ligand 100 ng/ml): 1.71
- ability of recombinant RTK ligand to confer resistance ([1]; G-361, PD184352 - 1 uM, ligand 0.4 ng/ml): 1.17
- ability of recombinant RTK ligand to confer resistance ([1]; G-361, PD184352 - 1 uM, ligand 1.6 ng/ml): 1.03
- ability of recombinant RTK ligand to confer resistance ([1]; G-361, PD184352 - 1 uM, ligand 6.25 ng/ml): 1.19
- ability of recombinant RTK ligand to confer resistance ([1]; G-361, PD184352 - 1 uM, ligand 25 ng/ml): 1.68
- ability of recombinant RTK ligand to confer resistance ([1]; G-361, PD184352 - 1 uM, ligand 100 ng/ml): 1.10
- ability of recombinant RTK ligand to confer resistance ([1]; G-361, PLX4720 - 2 uM, ligand 0.4 ng/ml): 0.97
- ability of recombinant RTK ligand to confer resistance ([1]; G-361, PLX4720 - 2 uM, ligand 1.6 ng/ml): 1.03
- ability of recombinant RTK ligand to confer resistance ([1]; G-361, PLX4720 - 2 uM, ligand 6.25 ng/ml): 1.24
- ability of recombinant RTK ligand to confer resistance ([1]; G-361, PLX4720 - 2 uM, ligand 25 ng/ml): 2.27
- ability of recombinant RTK ligand to confer resistance ([1]; G-361, PLX4720 - 2 uM, ligand 100 ng/ml): 9.24
- ability of recombinant RTK ligand to confer resistance ([1]; SK-MEL-5, PD184352 - 1 uM, ligand 0.4 ng/ml): 0.99
- ability of recombinant RTK ligand to confer resistance ([1]; SK-MEL-5, PD184352 - 1 uM, ligand 1.6 ng/ml): 1.17
- ability of recombinant RTK ligand to confer resistance ([1]; SK-MEL-5, PD184352 - 1 uM, ligand 6.25 ng/ml): 1.16
- ability of recombinant RTK ligand to confer resistance ([1]; SK-MEL-5, PD184352 - 1 uM, ligand 25 ng/ml): 1.81
- ability of recombinant RTK ligand to confer resistance ([1]; SK-MEL-5, PD184352 - 1 uM, ligand 100 ng/ml): 2.32
- ability of recombinant RTK ligand to confer resistance ([1]; SK-MEL-5, PLX4720 - 2 uM, ligand 0.4 ng/ml): 0.98
- ability of recombinant RTK ligand to confer resistance ([1]; SK-MEL-5, PLX4720 - 2 uM, ligand 1.6 ng/ml): 1.37
- ability of recombinant RTK ligand to confer resistance ([1]; SK-MEL-5, PLX4720 - 2 uM, ligand 6.25 ng/ml): 1.35
- ability of recombinant RTK ligand to confer resistance ([1]; SK-MEL-5, PLX4720 - 2 uM, ligand 25 ng/ml): 1.95
- ability of recombinant RTK ligand to confer resistance ([1]; SK-MEL-5, PLX4720 - 2 uM, ligand 100 ng/ml): 1.93
- ability of recombinant RTK ligand to confer resistance ([1]; SK-MEL-28, PD184352 - 1 uM, ligand 0.4 ng/ml): 1.11
- ability of recombinant RTK ligand to confer resistance ([1]; SK-MEL-28, PD184352 - 1 uM, ligand 1.6 ng/ml): 1.16
- ability of recombinant RTK ligand to confer resistance ([1]; SK-MEL-28, PD184352 - 1 uM, ligand 6.25 ng/ml): 1.22
- ability of recombinant RTK ligand to confer resistance ([1]; SK-MEL-28, PD184352 - 1 uM, ligand 25 ng/ml): 1.46
- ability of recombinant RTK ligand to confer resistance ([1]; SK-MEL-28, PD184352 - 1 uM, ligand 100 ng/ml): 1.87
- ability of recombinant RTK ligand to confer resistance ([1]; SK-MEL-28, PLX4720 - 2 uM, ligand 0.4 ng/ml): 1.05
- ability of recombinant RTK ligand to confer resistance ([1]; SK-MEL-28, PLX4720 - 2 uM, ligand 1.6 ng/ml): 1.42
- ability of recombinant RTK ligand to confer resistance ([1]; SK-MEL-28, PLX4720 - 2 uM, ligand 6.25 ng/ml): 1.55
- ability of recombinant RTK ligand to confer resistance ([1]; SK-MEL-28, PLX4720 - 2 uM, ligand 25 ng/ml): 3.85
- ability of recombinant RTK ligand to confer resistance ([1]; SK-MEL-28, PLX4720 - 2 uM, ligand 100 ng/ml): 2.20
- ability of RTK ligand to confer primary resistance ([1]; six V600E BRAF melanoma cell lines, BRAFi (PLX4720) or MEKi (PD184352)): confer substantial primary resistance
- HGF-conferred resistance, BRAFi versus MEKi ([2]; FIG. 11C): better resistance to BRAFi than MEKi
- HGF-conferred resistance ([2]; combination of BRAFi and AKTi (MK-2206)): confers resistance
